Source: PubChem BioAssay (NCI)
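Results reflect a 48-hour exposure of cells in 96-well plates to compound at five concentrations. The concentration for full growth arrest is given as TGI.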

Key:
Experiment in all cases: inhibition of tumour cell growth, NCI panel, 48 h
A549 NSCLC = tested on: A549 NSCLC
ACHN renal = tested on: ACHN renal
HCT-15 colon = tested on: HCT-15 colon
HT29 colon = tested on: HT29 colon
MCF7 breast = tested on: MCF7 breast
NCI-H226 lung = tested on: NCI-H226 lung
OVCAR-8 ovarian = tested on: OVCAR-8 ovarian
PC-3 prostate = tested on: PC-3 prostate
SK-MEL-28 melanoma = tested on: SK-MEL-28 melanoma
SW-620 colon = tested on: SW-620 colon
TK-10 renal = tested on: TK-10 renal

## COc1ccc(-c2[nH]c3c4c(nc5c(c24)C(=O)CC(C)(C)C5)CC(C)(C)C3)cc1
A549 NSCLC
  TGI: > 100 µM
ACHN renal
  TGI: > 100 µM
HCT-15 colon
  TGI: > 100 µM
HT29 colon
  TGI: > 100 µM
MCF7 breast
  TGI: > 100 µM
NCI-H226 lung
  TGI: > 100 µM
OVCAR-8 ovarian
  TGI: > 100 µM
PC-3 prostate
  TGI: 92.6 µM
SK-MEL-28 melanoma
  TGI: > 100 µM
SW-620 colon
  TGI: > 100 µM
TK-10 renal
  TGI: > 100 µM

## O=C(C1OC1c1ccc(Br)cc1O)C12CC3CC(CC(C3)C1)C2 (stereo not given)
A549 NSCLC
  TGI: > 100 µM
ACHN renal
  TGI: > 100 µM
HCT-15 colon
  TGI: 47 µM
HT29 colon
  TGI: > 100 µM
MCF7 breast
  TGI: > 100 µM
NCI-H226 lung
  TGI: > 100 µM
OVCAR-8 ovarian
  TGI: > 100 µM
PC-3 prostate
  TGI: 58.7 µM
SK-MEL-28 melanoma
  TGI: 46.8 µM
SW-620 colon
  TGI: 35.4 µM
TK-10 renal
  TGI: > 100 µM

## COc1ncc(/C=C2\OC(=O)c3ccccc32)c(OC)n1
A549 NSCLC
  TGI: > 100 µM
ACHN renal
  TGI: > 100 µM
HCT-15 colon
  TGI: > 100 µM
HT29 colon
  TGI: > 100 µM
MCF7 breast
  TGI: > 100 µM
NCI-H226 lung
  TGI: > 100 µM
OVCAR-8 ovarian
  TGI: > 100 µM
PC-3 prostate
  TGI: > 100 µM
SK-MEL-28 melanoma
  TGI: > 100 µM
SW-620 colon
  TGI: > 100 µM
TK-10 renal
  TGI: > 100 µM

## C[C@]12CCC3C4=C(CCC3C1CCC2=O)C(=O)[C@H]1O[C@H]1C4=O (stereo not given in full)
A549 NSCLC
  TGI: 26.4 µM
ACHN renal
  TGI: 6.77 µM
HCT-15 colon
  TGI: 2.8 µM
HT29 colon
  TGI: 3.45 µM
MCF7 breast
  TGI: 4.14 µM
NCI-H226 lung
  TGI: 4.99 µM
OVCAR-8 ovarian
  TGI: 5.59 µM
PC-3 prostate
  TGI: 11.5 µM
SK-MEL-28 melanoma
  TGI: 25.4 µM
SW-620 colon
  TGI: 4.98 µM
TK-10 renal
  TGI: 10.8 µM

## Oc1ccccc1CNCc1nc2ccccc2[nH]1
A549 NSCLC
  TGI: > 100 µM
ACHN renal
  TGI: 57.6 µM
HCT-15 colon
  TGI: 12.3 µM
HT29 colon
  TGI: > 100 µM
MCF7 breast
  TGI: > 100 µM
NCI-H226 lung
  TGI: 87.4 µM
OVCAR-8 ovarian
  TGI: > 100 µM
PC-3 prostate
  TGI: > 100 µM
SK-MEL-28 melanoma
  TGI: > 100 µM
SW-620 colon
  TGI: > 100 µM
TK-10 renal
  TGI: > 100 µM

## Cc1ccc(-c2csc(=Nc3ccccc3)n2NC(=O)c2ccncc2)cc1
A549 NSCLC
  TGI: > 100 µM
ACHN renal
  TGI: > 100 µM
HCT-15 colon
  TGI: > 100 µM
HT29 colon
  TGI: 60 µM
MCF7 breast
  TGI: > 100 µM
NCI-H226 lung
  TGI: > 75.2 µM
OVCAR-8 ovarian
  TGI: > 90.9 µM
PC-3 prostate
  TGI: > 100 µM
SK-MEL-28 melanoma
  TGI: > 100 µM
SW-620 colon
  TGI: > 100 µM
TK-10 renal
  TGI: > 100 µM

## CN(C)CCNS(=O)(=O)c1ccc(N)cc1
A549 NSCLC
  TGI: > 100 µM
ACHN renal
  TGI: > 100 µM
HCT-15 colon
  TGI: > 100 µM
HT29 colon
  TGI: > 100 µM
MCF7 breast
  TGI: > 100 µM
NCI-H226 lung
  TGI: > 100 µM
OVCAR-8 ovarian
  TGI: > 100 µM
PC-3 prostate
  TGI: 34 µM
SK-MEL-28 melanoma
  TGI: > 100 µM
SW-620 colon
  TGI: > 100 µM
TK-10 renal
  TGI: > 100 µM

## Cc1cc(-c2nc3ccc(F)cc3s2)ccc1NC(=O)[C@H](C)N
A549 NSCLC
  TGI: 24.6 µM
ACHN renal
  TGI: 22.9 µM
HCT-15 colon
  TGI: 14.1 µM
HT29 colon
  TGI: 8.38 µM
MCF7 breast
  TGI: 13.1 µM
NCI-H226 lung
  TGI: 19.3 µM
OVCAR-8 ovarian
  TGI: 27.3 µM
PC-3 prostate
  TGI: 24.3 µM
SK-MEL-28 melanoma
  TGI: 29.3 µM
SW-620 colon
  TGI: 15 µM
TK-10 renal
  TGI: 5.11 µM

## Cc1ccccc1C(=N)c1ccccc1Cc1cccc2ccccc12
A549 NSCLC
  TGI: > 100 µM
ACHN renal
  TGI: > 100 µM
HCT-15 colon
  TGI: 56.1 µM
HT29 colon
  TGI: > 100 µM
MCF7 breast
  TGI: 48.6 µM
NCI-H226 lung
  TGI: 45 µM
OVCAR-8 ovarian
  TGI: > 100 µM
PC-3 prostate
  TGI: > 100 µM
SK-MEL-28 melanoma
  TGI: 54.1 µM
SW-620 colon
  TGI: 66 µM
TK-10 renal
  TGI: > 100 µM

## CC(=O)c1c2c(c3ccccc3c1O)O[C@@H]1OCC[C@H]21
A549 NSCLC
  TGI: > 100 µM
ACHN renal
  TGI: > 100 µM
HCT-15 colon
  TGI: > 100 µM
HT29 colon
  TGI: > 100 µM
MCF7 breast
  TGI: > 100 µM
NCI-H226 lung
  TGI: > 100 µM
OVCAR-8 ovarian
  TGI: > 100 µM
PC-3 prostate
  TGI: > 100 µM
SK-MEL-28 melanoma
  TGI: > 100 µM
SW-620 colon
  TGI: > 100 µM
TK-10 renal
  TGI: > 100 µM
